Literature values in paper PMC9098912, “Molecular basis for inhibiting human glucose transporters by exofacial inhibitors” (Nature Communications, 2022).

Key:
[1] = system: GLUT3; parameters: method as in PMID 12792024; conditions: cited from earlier work
[2] = system: GLUT1; parameters: method as in Siebeneicher et al., 2016; conditions: SAR of Bayer compounds; ref Siebeneicher et al., 2016; cited from earlier work
[3] = system: GLUT1/3 over GLUT2; parameters: method as in Siebeneicher et al., 2016; conditions: ref Siebeneicher et al., 2016; cited from earlier work

SMILES | GLUT3 inhibition [1] | GLUT1 potency [2] | Selectivity [3]
C=CCCCCCCCCCO[C@H]1[C@H](O)[C@@H](CO)OC(O)[C@@H]1O (stereo partly drawn) [C3361] | weak inhibitor |  | 
COc1ccc(F)cc1N1CCN(c2ncnc3c2cnn3-c2ccccc2)CC1 [cmpd 15] |  | favors GLUT1 association | selective inhibition to GLUT1/3 over GLUT2
